# Assay results as given in patent US20200188540A1, “CONFORMATIONALLY STRAINED TRANS-CYCLOALKENES FOR RADIOLABELING” (UNIVERSITY OF DELAWARE, priority 2015, published 2020).
# What was measured:
# [1] = Stopped-flow kinetic analysis of Diels-Alder reaction of sTCO diastereomers with PEGylated tetrazine 11; details: for rate constant k2 with tetrazine 11: 55:45 MeOH:water at 25° C., stopped flow; for Mean k2: average of four sTCO concentrations, spread printed in cells below; for Mean k2 / k2 / kobs: tetrazine 11 0.05 mM, water:methanol 45:55, 25° C.; for kobs: in s-1 (unit assumed)
# Description: Stopped flow kinetic analysis was used to measure the rate of the Diels-Alder reaction between tetrazine derivative 11 and anti- and syn-diastereomers of sTCO (4 and 5, respectively). […] The latter is the fastest rate constant that has been described for a bioorthogonal reaction. For the present study, the inventors used stopped flow analysis to compare the relative rate of the syn- and anti-diastereomers 5 and 4 with tetrazine 11 in mixed organic/aqueous media (55:45 MeOH:water at 25° C.). As expected, the rates in MeOH:water were ˜9 fold slower than the measurements made in purely aqueous media, but still extremely rapid. The rate constant for the syn-diastereomer 5 with tetrazine 11 was k2 3.7×10^4 (+/−0.1×10^3) M^−1s^−1, and the anti-diastereomer 4 reacted with a rate constant k2 3.3×10^4 (+/−0.1×10^3) M^−1s^−1. Because the syn-diastereomer was more reactive it was chosen for further development
# The second order rate constant was measured under pseudo-first order conditions using an excess of the appropriate sTCO diastereomer (4 or 5), and by following the exponential decay of absorbance due to the tetrazine chromophore of 11 at 298 nm using an SX 18MV-R stopped-flow spectrophotometer (Applied Photophysics Ltd.). For each run, equal volumes of 45:55 water:methanol solutions of sTCO and PEGylated tetrazine 11 were mixed in the stopped flow device. Reactions were carried out with tetrazine 11 at 0.05 mM and final concentrations of 0.245, 0.49, 0.98 and 1.47 mM for the syn-diastereomer 5. Similarly, reactions were carried out with tetrazine 11 at 0.05 mM and final concentrations of 0.25, 0.50, 1.00 and 1.50 mM for the anti-diastereomer 4. A total of 400 data points were recorded over a period of 1 second, and each sample was performed in sextuplicate at 298 K. The kobs was determined by nonlinear regression analysis of the data points using Prism software (v. 6.00, GraphPad Software Inc.).
# The reaction between sTCOs 4 & 5 and the PEGylated tetrazine 11 was measured under pseudo-first order conditions in water:methanol 45:55 by following the exponential decay of the tetrazine at 298 nm over time using an SX 18MV-R stopped flow spectrophotometer (Applied Photophysics Ltd.). Solutions were prepared for the sTCO concentrations see table below water:methanol 45:55) and the tetrazine (0.1 mM in water:methanol 45:55) and thermostatted in the syringes of the spectrophotometer before measuring. 400 data points were recorded over a period of 1 second, and performed in sextuplicate at 298 K. The kobs was determined by nonlinear regression analysis of the data points using Prism software (v. 6.00, GraphPad Software Inc.).
# • PEGylated tetrazine 11 at 25° C. in water:methanol (45:55) measured under pseudo first order conditions using SX 18MV-R stopped flow spectrophotometer. Values were determined from an average of four runs. Synthesis and Characterization of a Conformationally Strained Trans-Cyclooctene with a Cis-Fused Cyclopentane Ring
# [2] = In vitro stability in fetal bovine serum (FBS); type: in vitro ADME; details: 37° C.
# Description: (§1) An aliquot of the solution (˜25 μCi) was taken out and loaded on HPLC at 1 h and 2 h time points for analysis. ^18F-9 was also incubated in FBS at 37° C. and after 1 h, an aliquot of the solution (˜25 μCi) was taken out and added to an equal volume of TFA. Similarly, ^18F-15 was also incubated in FBS at 37° C., and at 2 and 4 h time points, aliquots of the solution (˜25 μCi) were taken and added to an equal volume of TFA. For each sample, the mixture was centrifuged at 14000 rpm for 5 min. The supernatant was then diluted with 1 mL water and loaded on C18 Sep-Pak. After washing with 1 mL water, the cartridge was eluted with 0.5 mL acetonitrile. The water fraction and acetonitrile fraction were combined and loaded on HPLC for analysis
# [3] = In vitro stability in 1× PBS buffer; type: physicochemical; details: 37° C.; for radiochemical purity after incubation in 1× PBS: 2 hours
# Description: as §1
# [4] = microPET imaging in normal (non-tumor bearing) nude mice; type: in vivo; details: normal nude mouse
# Description: The inventors also performed microPET imaging with a normal (non-tumor bearing) nude mouse that had been injected with ^18F-9. […] The inventors also analyzed the clearance of the compound obtained by combining ^18F-9 with 11. This Diels-Alder conjugate—and analog of ^18F-15 that lacks the RGD moiety—still remained in the blood circulatory system after 4 hours. The blood uptake was 2.4% ID/g at 4 h post injection. The inventors have previously reported ^18F-labeled RGD probes derived from trans-cyclooctene 1.
# No background correction was performed.
# in vivo = details: mouse, iv, 3.7 MBq (100 uCi), total radioactivity
# Description: (§2) The localization of ^18F-15 in human U87MG tumor-bearing mice (n=5) was performed by static microPET scans at multiple time-point post tail vein injection. Selected decay-corrected coronal images at different time points were obtained after injection of 3.7 MBq (100 μCi) of ^18F-15. […] Data are expressed as average +/−SD.
# (§3) Animal procedures were performed according to a protocol approved by the UNC Institutional Animal Care and Use Committee. PET scans and image analysis were performed using a small animal PET scanner. Human U87MG tumor-bearing mice were anesthetized using 2% isoflurane and injected with 3.7 MBq (100 μCi) of ^18F-15 via the tail vein. At 0.5, 1.0, 2.0, and 4.0 h post injection, static emission scans were acquired for 10 min. Normal nude mice were injected with 3.7 MBq (100 μCi) of the Diels-Alder conjugate obtained by combining ^18F-9 and 11), or in a separate experiment by injecting only ^18F-9 using the same protocol. Raw PET images were reconstructed using 2D ordered subset expectation maximization (OSEM) algorithm. No background correction was performed. Regions of interest (ROI) were manually drawn over the tumor and other organs on the decay corrected coronal images. Based on the assumption that the tissue density is 1 g/mL, the ROIs were converted to % ID/g by dividing dose per gram at ROI by injected dose.
# (§4) Quantitative data were expressed as mean±SD. Means were compared using one-way ANOVA and Student's t test. P values<0.05 were considered statistically significant.
# human U87MG tumor = experiment: in vivo
# Description: as §2, §3, §4
compound,measurement,setting,value
OCC1C2CCC=CCCC12 (stereo not drawn) [Compound 4],rate constant k2 with tetrazine 11,[1],3.3×10^4 (+/−0.1×10^3) M^−1s^−1
same,Mean k2,[1],"31,700 M^−1s^−1"
same,k2,[1]; resulting sTCO 0.25 mM,29832 M⁻¹ s⁻¹
same,kobs,[1]; resulting sTCO 0.25 mM,7.458
same,k2,[1]; resulting sTCO 0.5 mM,31680 M⁻¹ s⁻¹
same,kobs,[1]; resulting sTCO 0.5 mM,15.84
same,k2,[1]; resulting sTCO 1 mM,32510 M⁻¹ s⁻¹
same,kobs,[1]; resulting sTCO 1 mM,32.51
same,k2,[1]; resulting sTCO 1.5 mM,32653 M⁻¹ s⁻¹
same,kobs,[1]; resulting sTCO 1.5 mM,48.98
"OC[C@H]1[C@H]2CC/C=C/CC[C@@H]12 [Compound 5, (rel-1R,8S,9S,4E)-Bicyclo[6.1.0]non-4-ene-9-ylmethanol]",rate constant k2 with tetrazine 11,[1],3.7×10^4 (+/−0.1×10^3) M^−1s^−1
same,Mean k2,[1],"36,100 M^−1s^−1"
same,k2,[1]; resulting sTCO 0.245 mM,34347 M⁻¹ s⁻¹
same,kobs,[1]; resulting sTCO 0.245 mM,8.415
same,k2,[1]; resulting sTCO 0.49 mM,37571 M⁻¹ s⁻¹
same,kobs,[1]; resulting sTCO 0.49 mM,18.41
same,k2,[1]; resulting sTCO 0.98 mM,35796 M⁻¹ s⁻¹
same,kobs,[1]; resulting sTCO 0.98 mM,35.08
same,k2,[1]; resulting sTCO 1.47 mM,36857 M⁻¹ s⁻¹
same,kobs,[1]; resulting sTCO 1.47 mM,54.18
FCCOCCOCCOC[C@@H]1[C@@H]2CC/C=C/CC[C@@H]21 [^18F-9],kinetics with diphenyl-s-tetrazines,[1]; general statement of reactivity,> 10^4 M^−1s^−1
same,radiochemical purity retained in fetal bovine serum,[2]; 1 hour,74%
same,radiopurity after incubation in 1× PBS,[3]; 1 hour,97.5%
same,radiochemical purity after incubation in 1× PBS,[3],97.3%
same,"time to clearance by the gallbladder, kidney and liver",[4],≤ 2 h
N=C(N)NCCC[C@@H]1NC(=O)C(CCCCNC(=O)CCOCCOCCOCCOCCOCCOCCOCCOCCOCCOCCOCCOCCNC(=O)OCc2ccc(C3=NNC(c4ccccc4)=C4CC[C@H]5[C@@H](CCC34)[C@H]5COCCOCCOCCF)cc2)NC(=O)[C@@H](Cc2ccc(O)cc2)NC(=O)[C@H](CC(=O)O)NC(=O)CNC1=O (stereo partly drawn) [^18F-15],purity in fetal bovine serum,[2]; 2 hours post incubation,96.7%
same,purity in fetal bovine serum,[2]; 4 hours post incubation,94.5%
same,radiochemical purity after incubation in 1× PBS,[3],98.5%
same,tissue uptake at 0.5 h,in vivo; tumor (U87MG),5.3 %ID/g
same,tissue uptake at 1 h,in vivo; tumor (U87MG),6.9 %ID/g
same,tissue uptake at 2 h,in vivo; tumor (U87MG),7.5 %ID/g
same,tissue uptake at 4 h,in vivo; tumor (U87MG),8.9 %ID/g
same,tissue to tissue ratio at 4 h,in vivo; tumor and kidney,2.4
same,tissue to tissue ratio at 4 h,in vivo; tumor and liver,1.6
same,tumor uptake relative to other major organs,human U87MG tumor; 4 h post injection,1.6-2.4 fold
same,"tracer uptake in tumor, blocking experiment","human U87MG tumor; co-injected with non-radio labeled cRGDyK (200 μg), 1 h post injection",4.8+/−0.3%
